The values below come from patent publication US20230265116A1, “DEGRADATION OF (EGFR) BY CONJUGATION OF EGFR INHIBITORS WITH E3 LIGASE LIGAND AND METHODS OF USE” (BEIGENE, LTD., priority 2020, published 2023).

This assay concerns the target T1, EGFR (HCC827 cells) (Homo sapiens, UniProt P00533, DEL746-750).
T1 construct: endogenous in cells; host or cells: HCC827
The assay can be described thus: EGFR degradation HTRF assay, HCC827 cells. Type of assay: cell-based. Particulars: HCC827, 16h treatment; for Dmax: maximum percentage of degradation. On the procedure: BaF3 WT(wild type), BaF3-LTC(L858R/T790M/C797S) and BaF3-DTC(Del19/T790M/C797S) cells are treated with compounds diluted in 0.2% DMSO cell culture medium and incubate for 16h, 37° C., 5% CO2, H1975-#36, H1975-#28, H1975-#23 and HCC827 cells are treated with compounds diluted in 0.2% DMSO cell culture medium on day 2, incubate for 16h, 37° C., 5% CO2.the final concentriation of compounds in all assay is start with 10 uM, 5-fold dilution, total 8 doses were included.
After 16h treatment, add HTRF lysis buffer to each well; seal the plate and incubate 1 hour at room temperature on a plate shaker; Once the cells are lysed, 16 μL of cell lysate are transferred to a PE 384-well HTRF detection plate; 4 μL of pre-mixed HTRF antibodies are added to each well; Cover the plate with a plate sealer, spin 1000 rpm for 1 min, Incubate overnight at room temperature; Read on BMG PheraStar with HTRF protocol (337 nm-665 nm-620 nm).
The inhibition (degradation) percentage of the compound was calculated by the following equation: Inhibition percentage of Compound=100-100×(Signal-low control)/(High control-low control), wherein signal=each test compound group
High control=Cell group with added DMSO and without compound, indicating microplate readings without EGFR degradation;
Dmax is the maximum percentage of inhibition (degradation).
The IC50 (DC50) value of a compound can be obtained by fitting the following equation
Y=Bottom+(TOP−Bottom)/(1+((IC50/X)^hillslope))
Wherein, X and Y are known values, and IC50, Hillslope, Top and Bottom are the parameters obtained by fitting with software. Y is the inhibition percentage (calculated from the equation), X is the concentration of the compound; IC50 is the concentration of the compound when the 50% inhibition is reached. The smaller the IC50 value is, the stronger the inhibitory ability of the compound is. Vice versa, the higher the IC50 value is, the weaker the inhibitory ability of the compound is; Hillslope represents the slope of the fitted curve, generally around 1*; Bottom represents the minimum value of the curve obtained by data fitting, which is generally 0%±20%; Top represents the maximum value of the curve obtained by data fitting, which is generally 100%±20%. The experimental data were fitted by calculating and analyzing with Dotmatics data analysis software.
On the technique in general: In TR-FRET formats the signal depends on donor and acceptor labels being close together.

T1 sequence (P00533 with tags, fused parts or gaps DEL746-750): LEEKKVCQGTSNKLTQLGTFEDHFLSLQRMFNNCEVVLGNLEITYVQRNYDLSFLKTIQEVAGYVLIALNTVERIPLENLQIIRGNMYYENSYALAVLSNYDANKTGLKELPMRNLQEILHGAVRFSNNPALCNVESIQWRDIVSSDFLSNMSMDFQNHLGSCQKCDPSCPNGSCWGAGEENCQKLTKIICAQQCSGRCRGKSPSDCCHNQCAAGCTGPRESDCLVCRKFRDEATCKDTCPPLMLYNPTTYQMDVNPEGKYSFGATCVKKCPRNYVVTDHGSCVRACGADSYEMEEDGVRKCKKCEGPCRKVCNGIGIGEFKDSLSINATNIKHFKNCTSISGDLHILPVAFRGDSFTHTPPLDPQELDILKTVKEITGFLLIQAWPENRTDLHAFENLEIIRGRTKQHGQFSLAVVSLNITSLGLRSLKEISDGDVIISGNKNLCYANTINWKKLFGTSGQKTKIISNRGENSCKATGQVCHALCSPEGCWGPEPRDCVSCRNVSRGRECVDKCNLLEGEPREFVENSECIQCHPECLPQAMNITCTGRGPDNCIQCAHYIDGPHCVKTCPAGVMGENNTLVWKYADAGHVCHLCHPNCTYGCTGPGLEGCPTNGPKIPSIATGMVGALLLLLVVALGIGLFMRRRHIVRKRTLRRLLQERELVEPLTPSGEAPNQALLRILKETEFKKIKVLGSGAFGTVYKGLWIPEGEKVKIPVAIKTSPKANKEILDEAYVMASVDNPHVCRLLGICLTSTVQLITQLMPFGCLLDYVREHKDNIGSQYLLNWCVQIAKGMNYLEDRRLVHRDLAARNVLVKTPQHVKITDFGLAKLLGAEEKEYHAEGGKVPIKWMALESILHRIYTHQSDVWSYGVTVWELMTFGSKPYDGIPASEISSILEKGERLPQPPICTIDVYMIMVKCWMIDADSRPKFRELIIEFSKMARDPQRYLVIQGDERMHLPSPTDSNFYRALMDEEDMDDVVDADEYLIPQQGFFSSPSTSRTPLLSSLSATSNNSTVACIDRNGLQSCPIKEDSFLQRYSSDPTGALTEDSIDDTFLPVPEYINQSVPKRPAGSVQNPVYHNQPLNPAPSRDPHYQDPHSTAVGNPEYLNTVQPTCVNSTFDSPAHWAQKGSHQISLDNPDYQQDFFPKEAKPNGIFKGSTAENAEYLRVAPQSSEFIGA

Consider `COc1cc(N2CCC(N3CCN(C(=O)CC4CCN(c5ccc(C6CCC(=O)NC6=O)cc5)CC4)CC3)CC2)ccc1Nc1ncc(Cl)c(Nc2ccccc2P(C)(C)=O)n1` (stereo not shown) [Example 107, 3-(4-(4-(2-(4-(1-(4-((5-chloro-4-((2-(dimethylphosphoryl)phenyl)amino)pyrimidin-2-yl)amino)-3-methoxyphenyl)piperidin-4-yl)piperazin-1-yl)-2-oxoethyl)piperidin-1-yl)phenyl)piperidine-2,6-dione], for which the DC50 was 17.2 nM and the Dmax was 79.3%.

`COc1cc(N2CCC(N3CCN(CCc4ccc(NC5CCC(=O)NC5=O)cc4)CC3)CC2)ccc1Nc1ncc(Cl)c(Nc2ccccc2P(C)(C)=O)n1` (stereo not shown) [Example 108] came in with a DC50 of 16.6 nM and a Dmax of 82.2%.

The molecule `COc1cc(N2CCC(N(C)CCc3ccc(C4CCC(=O)NC4=O)cc3)CC2)c(C)cc1Nc1ncc(Br)c(Nc2ccc3nccnc3c2P(C)(C)=O)n1` (stereo not shown) [Example 75, 3-(4-(2-((1-(4-((5-bromo-4-((5-(dimethylphosphoryl)quinoxalin-6-yl)amino)pyrimidin-2-yl)amino)-5-methoxy-2-methylphenyl)piperidin-4-yl)(methyl)amino)ethyl)phenyl)piperidine-2,6-dione] registered a DC50 of 50.6 nM and a Dmax of 72.1%.

In turn, `COc1cc(N2CCC(N(C)CCc3ccc(C4CCC(=O)NC4=O)cn3)CC2)c(C)cc1Nc1ncc(Br)c(Nc2ccc3nccnc3c2P(C)(C)=O)n1` (stereo not shown) [Example 74, 3-(6-(2-((1-(4-((5-bromo-4-((5-(dimethylphosphoryl)quinoxalin-6-yl)amino)pyrimidin-2-yl)amino)-5-methoxy-2-methylphenyl)piperidin-4-yl)(methyl)amino)ethyl)pyridin-3-yl)piperidine-2,6-dione] gave a half-maximal degradation concentration (DC50) of 57.2 nM and a Dmax of 85.2%.

On to `CN(c1ccccc1Nc1nc(Nc2ccc(N3CC4(CN(CCc5ccc(NC6CCC(=O)NC6=O)cc5)C4)C3)c(F)c2)ncc1Cl)S(C)(=O)=O` (stereo not shown) [Example 136, N-(2-((5-chloro-2-((4-(6-(4-((2,6-dioxopiperidin-3-yl)amino)phenethyl)-2,6-diazaspiro[3.3]heptan-2-yl)-3-fluorophenyl)amino)pyrimidin-4-yl)amino)phenyl)-N-methylmethanesulfonamide], for which the DC50 was determined as 68.5 nM and the Dmax turned out to be 79.5%.

For `COc1cc(N2CCN(CCc3ccc(C4CCC(=O)NC4=O)cc3)CC2)c(C)cc1Nc1ncc(Br)c(Nc2ccc3nccnc3c2P(C)(C)=O)n1` (stereo not shown) [Example 86, 3-(4-(2-(4-(4-((5-bromo-4-((5-(dimethylphosphoryl)quinoxalin-6-yl)amino)pyrimidin-2-yl)amino)-5-methoxy-2-methylphenyl)piperazin-1-yl)ethyl)phenyl)piperidine-2,6-dione], the DC50 is 66.7 nM and the Dmax came out at 81%.

In turn, `COc1cc(N2CCC(N3CCN(CCc4ccc(CN5CCC(=O)NC5=O)cc4)CC3)CC2)ccc1Nc1ncc(Cl)c(Nc2ccccc2P(C)(C)=O)n1` [Example 111, 1-(4-(2-(4-(1-(4-((5-chloro-4-((2-(dimethylphosphoryl)phenyl)amino)pyrimidin-2-yl)amino)-3-methoxyphenyl)piperidin-4-yl)piperazin-1-yl)ethyl)benzyl)dihydropyrimidine-2,4(1H,3H)-dione] gave a DC50 of 112 nM and a Dmax of 81.1%.

In turn, `CN(c1ccccc1Nc1nc(Nc2ccc(N3CC4(CN(C(=O)C5CCN(CC6CCN(c7ccc8c(c7)C(=O)N(C7CCC(=O)NC7=O)C8=O)CC6)CC5)C4)C3)c(F)c2)ncc1Cl)S(C)(=O)=O` (stereo not shown) [Example 137, N-(2-((5-chloro-2-((4-(6-(1-((1-(2-(2,6-dioxopiperidin-3-yl)-1,3-dioxoisoindolin-5-yl)piperidin-4-yl)methyl)piperidine-4-carbonyl)-2,6-diazaspiro[3.3]heptan-2-yl)-3-fluorophenyl)amino)pyrimidin-4-yl)amino)phenyl)-N-methylmethanesulfonamide] yielded a DC50 of 9.41 nM and a Dmax of 92.5%.

As a reminder, the DC50 is the midpoint of the concentration-degradation curve. Higher therefore signals degradation only at high concentration. Broadly, the Dmax is the greatest extent of degradation seen.
